pIC50: −log10 of the molar value. Where two headings read alike, the source gives them in different places.
Assays:
[1] = tested on: panel of human and mouse lymphoma cell lines; experiment: Cell growth inhibition, whole lymphoma panel (mean IC50, mean rank); format: cell-based; conditions: mean over six lymphoma cell lines
Protocol: (§1) In this study, compounds 1-8 were screened in vitro against a panel of four mouse lymphoma cell lines and two human lymphoma cell line for cell growth inhibition activity. Following treatment, half maximal inhibitory concentrations (IC50) were determined with the objective of selecting the most efficacious compounds for evaluation of in vitro absorption, distribution, metabolism, and excretion (ADME) screening.
(§2) Cells were subcultured and 4×10^3 cells (in 50 μL) were transferred to each well in a Falcon 96-well tissue culture plate. Exemplary compounds were dissolved in pure dimethyl sulphoxide (DMSO) at a concentration of 10 mM. From this 10 mM stock solution, 12 successive serial dilutions were made in DMSO (2.5 fold dilutions), ranging from 0.52 μM to 10 mM. Using these stock dilutions, 5 μL of each were added to 500 μL of media, and 50 μL of this was added to the cells. The final concentrations being tested ranged from 0.0026 μM to 50 μM. Each concentration was tested in triplicate, and DMSO and untreated cells were also included as controls. After five days of incubation with the compounds, cell viability was determined using the XTT cell proliferation kit (Roche, Cat. No. 11 465 015 001). Following the XTT protocol, 4.5-24 hours after addition of the reagent, the plates were read in a μQuant 96-well plate spectrophotometer (Biotek Instruments Inc.) and the results analyzed to determine the IC50.
In vitro potency was assessed using eight exemplary compounds against a panel of human and mouse lymphoma cell lines (Table 4). […] To compare the efficacy of the compounds in cell growth inhibition across the entire panel of cell lines screened, the eight compounds were ranked according to efficacy against each cell line with a numerical value of one indicating most efficacious (lowest IC50 value) and eight being the least efficacious (highest IC50 value).

[2] = tested on: human prostate cancer cell DU14; experiment: XTT cell proliferation assay, DU14; format: cell-based; conditions: 5 days incubation, read-out: Antiproliferative activity, Pros. DU14
Protocol: (§3) Exemplary compounds 1-8 were tested for anti-cancer activity in vitro using human renal cancer cells (ACHN and CAK-1), human pancreatic cells (BXPC3 and SU-86-86), human prostate cancer cell (DU14), human colon carcinoma cells (HT-29 and KM-12), leukemia cells (HL60), brain cancer/tumour cells (SK-A-AS, U87-MG), and human non-small cell lung cancer cells (H460). Compounds 1-8 are the specific embodiments of Formula (I) and Formula (IV) as described above in this application.
(§4) The cells were maintained as a monolayer in a growth medium; McCoy's 5A modified medium (Sigma, St. Louis, Mo.), supplemented with 2 mM L-glutamine (Gibco, Grand Island, N.Y.), 10% fetal bovine serum (FBS) (Multicell, WISENT Inc. St-Bruno, QC), antibiotic-antimycotic (Multicell), at 37° C. in a 5% CO2-humidified incubator. Cells were transferred onto 150 mm tissue culture plates and grown until sub-confluency (70-80%) prior to their use. The in vitro antiproliferative activity of compounds was evaluated by incubating the cells with varying concentrations of exemplary compounds as shown in Table 1 for 5 days. The efficacy of these compounds in this cell proliferation assay was measured based in the ability of live cells to reduce the tetrazolium salt XTT to orange colored compounds of formazan (XTT cell proliferation kit IT, Roche Applied Science, Montreal, QC).

[3] = tested on: human Burkitt's lymphoma Ramos cells; experiment: Cell growth inhibition assay, Ramos; format: cell-based; conditions: five days of incubation, XTT; read-out: IC50 Ramos (hs)
Protocol: as §1
(§5) Similarly, human Burkitt's lymphoma Ramos cells (ATCC CRL-1596) were grown in suspension in Roswell Park Memorial Institute (RPMI) 1640 medium supplemented with 10% fetal bovine serum (FBS), 10 mM HEPES KOH pH 7.4, and 2 mM sodium pyruvate. Mouse P388D1 (ATCC CCL-46) and WR19L (ATCC TIB-52) cells were grown in suspension in Dulbecco's Modified Eagle Medium (DMEM) with 10% fetal bovine serum (FBS), 10 mM HEPES, and 2 mM sodium pyruvate. Mouse WEHI231 (ATCC CRL-1702) and EL4 (ATCC TIB-39) cells were grown in suspension in DMEM with 10% fetal bovine serum (FBS), 10 mM HEPES KOH pH 7.4, 2 mM sodium pyruvate, and 0.05 mM β-mercaptoethanol. All cells were maintained at 37° C. in an atmosphere of 5% CO2 in air. Logarithmically growing cells were routinely sub-cultured twice weekly. Briefly, cells were collected by centrifugation, resuspended in pre-warmed media, and diluted 1:10 into a 75 cm^2 flask.
as §2

[4] = tested on: EL4 (mouse, lymphoma); experiment: Cell growth inhibition assay, EL4; format: cell-based; conditions: five days of incubation, XTT; read-out: IC50 EL4 (ms)
Protocol: as §1, §5, §2

[5] = tested on: non-small cell lung cancer cells HOP-92; experiment: XTT cell proliferation assay, HOP-92; format: cell-based, human; conditions: 5 days incubation, read-out: Antiproliferative activity, NSCLC HOP-92
Protocol: [The procedure below names another cell line; the source lists this cell line under the same test.] as §3, §4

[6] = tested on: human colon carcinoma cells HT-29; experiment: XTT cell proliferation assay, HT-29; format: cell-based; conditions: 5 days incubation, read-out: Antiproliferative activity, Colon HT-29
Protocol: as §3, §4

[7] = tested on: human renal cancer cells ACHN; experiment: XTT cell proliferation assay, ACHN; format: cell-based; conditions: 5 days incubation, read-out: Antiproliferative activity, Kidney ACHN
Protocol: as §3, §4

[8] = tested on: leukemia cells HL60; experiment: XTT cell proliferation assay, HL60; format: cell-based, human; conditions: 5 days incubation, read-out: Antiproliferative activity, Leuk. HL60
Protocol: as §3, §4

[9] = tested on: P388D1 (mouse, lymphoma); experiment: Cell growth inhibition assay, P388D1; format: cell-based; conditions: five days of incubation, XTT; read-out: IC50 P388D1 (ms)
Protocol: as §1, §5, §2

[10] = tested on: human colon carcinoma cells KM12; experiment: XTT cell proliferation assay, KM12; format: cell-based; conditions: 5 days incubation, read-out: Antiproliferative activity, Colon KM12
Protocol: as §3, §4

[11] = tested on: WR19L (mouse, lymphoma); experiment: Cell growth inhibition assay, WR19L; format: cell-based; conditions: five days of incubation, XTT; read-out: IC50 WR19L (ms)
Protocol: as §1, §5, §2

[12] = tested on: non-small cell lung cancer cells H226; experiment: XTT cell proliferation assay, H226; format: cell-based, human; conditions: 5 days incubation, read-out: Antiproliferative activity, NSCLC H226
Protocol: [The procedure below names another cell line; the source lists this cell line under the same test.] as §3, §4

[13] = tested on: Human Burkitt's lymphoma Raji cells; experiment: Cell growth inhibition assay, Raji; format: cell-based; conditions: five days of incubation, XTT; read-out: IC50 Raji (hs)
Protocol: as §1
Human Burkitt's lymphoma Raji cells (ATCC CCL-86) were grown in suspension in Roswell Park Memorial Institute (RPMI) 1640 medium supplemented with 10% fetal bovine serum (FBS), 10 mM HEPES KOH pH 7.4, and 2 mM sodium pyruvate at 37° C. in an atmosphere of 5% CO2 in air. Logarithmically growing cells were routinely sub-cultured twice weekly. Briefly, cells were collected by centrifugation, resuspended in pre-warmed media, and diluted 1:10 into a 75 cm^2 flask.
as §2

[14] = tested on: WEHI 231 (mouse, B-cell lymphoma); experiment: Cell growth inhibition assay, WEHI231; format: cell-based; conditions: five days of incubation, XTT; read-out: IC50 WEHI231 (ms)
Protocol: as §1, §5, §2

[15] = tested on: human pancreatic cells BXPC3; experiment: XTT cell proliferation assay, BXPC3; format: cell-based; conditions: 5 days incubation, read-out: Antiproliferative activity, Pancreas BXPC3
Protocol: as §3, §4

[16] = tested on: brain cancer/tumour cells U87-MG; experiment: XTT cell proliferation assay, U87-MG; format: cell-based, human; conditions: 5 days incubation, read-out: Antiproliferative activity, Brain U87-MG
Protocol: as §3, §4

[17] = tested on: non-small cell lung cancer cells HOP-62; experiment: XTT cell proliferation assay, HOP-62; format: cell-based, human; conditions: 5 days incubation, read-out: Antiproliferative activity, NSCLC HOP-62
Protocol: [The procedure below names another cell line; the source lists this cell line under the same test.] as §3, §4

[18] = tested on: human pancreatic cells SU-86-86; experiment: XTT cell proliferation assay, SU-86-86; format: cell-based; conditions: 5 days incubation, read-out: Antiproliferative activity, Pancreas SU-86-86
Protocol: as §3, §4

[19] = tested on: non-small cell lung cancer cells EKVX; experiment: XTT cell proliferation assay, EKVX; format: cell-based, human; conditions: 5 days incubation, read-out: Antiproliferative activity, NSCLC EKVX
Protocol: [The procedure below names another cell line; the source lists this cell line under the same test.] as §3, §4

[20] = tested on: human non-small cell lung cancer cells H460; experiment: XTT cell proliferation assay, H460; format: cell-based; conditions: 5 days incubation, read-out: Antiproliferative activity, NSCLC H460
Protocol: as §3, §4

[21] = tested on: brain cancer/tumour cells SK-N-AS; experiment: XTT cell proliferation assay, SK-N-AS; format: cell-based, human; conditions: 5 days incubation, read-out: Antiproliferative activity, Brain SK-N-AS
Protocol: as §3, §4

[22] = tested on: human renal cancer cells CAKI-1; experiment: XTT cell proliferation assay, CAKI-1; format: cell-based; conditions: 5 days incubation, read-out: Antiproliferative activity, Kidney CAKI-1
Protocol: as §3, §4

[23] = NCI screen; cited from earlier work

Compound | pIC50 [1] | pIC50 [2] | pIC50 [3] | pIC50 [4] | pIC50 [5] | pIC50 [6] | pIC50 [7] | pIC50 [8] | pIC50 [9] | pIC50 [10] | pIC50 [11] | pIC50 [12] | pIC50 [13] | pIC50 [14] | pIC50 [15] | pIC50 [16] | pIC50 [17] | pIC50 [20] | pIC50 [21] | pIC50 [18] | also measured
FC1(F)Oc2ccc(-c3nc4c5cccnc5c5ncccc5c4[nH]3)cc2O1 [Compound 2] | 6.72 | 6.66 | 6.82 | 6.42 | 6.77 | 6.52 | 6.77 | 6.42 | 6.40 | 6.66 | 7.51 | 6.37 | 6.78 | 8.29 | 6.74 | 6.74 | – | – | – | – | –
FC1(F)Oc2ccc(-c3nc4c5cccnc5c5ncccc5c4[nH]3)cc2O1 [Compound 3] | 6.69 | 6.77 | 6.86 | 6.35 | 6.77 | 6.66 | 6.77 | 6.82 | 6.42 | 6.64 | 7.23 | 6.41 | 6.71 | 8.38 | 6.74 | 6.81 | – | – | – | – | –
FC1(F)Oc2ccc(-c3nc4c5cccnc5c5ncccc5c4[nH]3)cc2O1 [Compound 4] | 6.85 | 6.82 | 7.24 | 6.31 | 6.77 | 6.52 | 6.90 | 6.77 | 6.61 | 6.74 | 8.24 | 6.41 | 7.27 | 8.19 | 6.77 | 6.74 | 6.77 | 6.80 | 6.72 | 7.59 | pIC50 ([19]; Homo sapiens, EKVX, 120 h): 6.80; pIC50 [22]: 6.77
FC1(F)Oc2ccc(-c3nc4c5cccnc5c5ncccc5c4[nH]3)cc2O1 [Compound 5] | 6.72 | 6.74 | 7.12 | 6.29 | 6.77 | 6.77 | 6.89 | 6.96 | 6.38 | 6.55 | 8.03 | 6.72 | 6.96 | 7.90 | 6.70 | 6.74 | 6.68 | 6.85 | 7.05 | 7.55 | pIC50 [19]: 6.82
c1ccc2c(-c3nc4ccccc4[nH]3)cccc2c1 [NCI #144033] | – | – | – | – | – | – | – | – | – | – | – | – | – | – | – | – | – | – | – | – | activity in the In Vivo Anticancer Drug Screen [23]: None of these three compounds showed any activity
CN(C)c1ccc(-c2nc3c4ccccc4c4ccccc4c3[nH]2)cc1 [NCI #322334] | – | – | – | – | – | – | – | – | – | – | – | – | – | – | – | – | – | – | – | – | activity in the In Vivo Anticancer Drug Screen [23]: None of these three compounds showed any activity

Further lines, with some results ahead:

pIC50 [1] | pIC50 [2] | pIC50 [3] | pIC50 [4] | pIC50 [5] | pIC50 [6] | pIC50 [7] | pIC50 [8] | pIC50 [9] | pIC50 [10] | pIC50 [11] | pIC50 [12] | pIC50 [13] | pIC50 [14] | pIC50 [15] | pIC50 [16] | pIC50 [17] | pIC50 [20] | pIC50 [21] | Compound | pIC50 [18] | also measured
7.55 | 6.89 | 7.74 | 7.24 | 7.52 | 6.77 | 7.42 | 7.30 | 7.28 | 6.74 | > 8.59 | 6.68 | 7.49 | 8.38 | 6.70 | 6.74 | 7.52 | 6.80 | 7.44 | FC1(F)Oc2ccc(-c3nc4c5cccnc5c5ncccc5c4[nH]3)cc2O1 [Compound 6] | 7.59 | pIC50 [19]: 6.77; pIC50 [22]: 7.52
6.83 | 7.52 | 7.08 | 6.33 | 6.77 | 6.41 | 7.64 | 7.52 | 6.68 | 6.40 | 7.92 | 6.70 | 6.95 | 8.12 | 7.40 | 7.40 | 6.82 | 6.49 | 6.72 | FC1(F)Oc2ccc(-c3nc4c5cccnc5c5ncccc5c4[nH]3)cc2O1 [Compound 7] | 6.96 | pIC50 [19]: 6.66; pIC50 [22]: 6.80
7.16 | 6.82 | 7.47 | 6.70 | 6.80 | 6.55 | 6.69 | 6.96 | 6.84 | 6.23 | 8.29 | 6.15 | 7.60 | 8.52 | 6.68 | 6.72 | – | – | – | FC1(F)Oc2ccc(-c3nc4c5cccnc5c5ncccc5c4[nH]3)cc2O1 [Compound 8] | – | –

Source: US9309247B2, “2-substituted imidazo[4,5-D]phenanthroline derivatives and their use in the treatment of cancer” (Aptose Biosciences Inc., priority 2013, dated 2016)
